Assay: xn = mol fraction of the nth substance listed
Conditions: Liquid, Vibrating tube method

COC(=O)OC [dimethyl carbonate] + CCCO
mass density [kg/m3]
Conditions	100 kPa	5000 kPa	10000 kPa	15000 kPa	20000 kPa	25000 kPa	30000 kPa	35000 kPa	40000 kPa
298.15 K, x1 = 0.0273	–	–	–	–	–	824.63	827.8	830.69	833.7
298.15 K, x1 = 0.0506	–	–	–	–	–	831.37	834.55	837.44	840.46
298.15 K, x1 = 0.0755	–	–	–	–	–	838.51	841.73	844.68	847.74
298.15 K, x1 = 0.1007	–	–	–	–	–	845.6	848.88	851.87	854.94
298.15 K, x1 = 0.1495	–	–	–	–	–	859.5	862.83	865.84	868.95
298.15 K, x1 = 0.2003	–	–	–	–	–	873.75	877.1	880.17	883.35
298.15 K, x1 = 0.2529	–	–	–	–	–	888.37	891.77	894.9	898.11
298.15 K, x1 = 0.2993	–	–	–	–	–	901.23	904.69	907.88	911.12
298.15 K, x1 = 0.3497	–	–	–	–	–	915.04	918.51	921.76	925.01
298.15 K, x1 = 0.401	–	–	–	–	–	928.97	932.5	935.75	939.03
298.15 K, x1 = 0.4509	–	–	–	–	–	942.42	946	949.32	952.62
298.15 K, x1 = 0.5002	–	–	–	–	–	955.58	959.23	962.55	965.93
298.15 K, x1 = 0.5498	–	–	–	–	965.01	968.71	972.41	975.8	979.21
298.15 K, x1 = 0.5996	–	–	–	–	978.09	981.85	985.57	988.96	992.41
298.15 K, x1 = 0.6499	–	–	–	–	991.19	995.01	998.78	1002.23	1005.7
298.15 K, x1 = 0.7006	–	–	–	–	1004.45	1008.28	1012.06	1015.57	1019.07
298.15 K, x1 = 0.7471	–	–	–	–	1016.43	1020.32	1024.11	1027.63	1031.19
298.15 K, x1 = 0.7989	–	–	–	–	1029.72	1033.62	1037.46	1041.04	1044.59
298.15 K, x1 = 0.8491	–	–	–	–	1042.57	1046.53	1050.43	1054.02	1057.6
298.15 K, x1 = 0.8993	–	–	–	–	1055.43	1059.4	1063.31	1066.92	1070.52
298.15 K, x1 = 0.9249	–	–	–	–	1061.94	1065.92	1069.84	1073.44	1077.05
298.15 K, x1 = 0.9489	–	–	–	–	1067.96	1071.94	1075.86	1079.52	1083.13
298.15 K, x1 = 0.9743	–	–	–	–	1074.33	1078.36	1082.29	1085.95	1089.6
298.15 K, x1 = 1	–	–	–	–	1080.9	1084.89	1088.82	1092.44	1096.04
303.15 K, x1 = 0.0273	802.96	806.96	810.58	814.19	817.69	821.09	824.3	827.45	830.37
303.15 K, x1 = 0.0506	809.34	813.38	817.06	820.71	824.27	827.72	830.93	834.14	837.11
303.15 K, x1 = 0.0755	816.25	820.3	824.02	827.68	831.25	834.74	838.05	841.27	844.3
303.15 K, x1 = 0.1007	823.16	827.26	831	834.7	838.32	841.82	845.13	848.4	851.44
303.15 K, x1 = 0.1495	836.62	840.77	844.56	848.32	851.95	855.5	858.87	862.14	865.25
303.15 K, x1 = 0.2003	850.48	854.68	858.53	862.39	866.08	869.69	873.1	876.43	879.56
303.15 K, x1 = 0.2529	864.74	869	872.91	876.81	880.56	884.23	887.7	891.09	894.28
303.15 K, x1 = 0.2993	877.26	881.57	885.49	889.45	893.25	896.97	900.44	903.84	907.1
303.15 K, x1 = 0.3497	890.62	894.99	899.01	903.02	906.89	910.67	914.19	917.64	920.92
303.15 K, x1 = 0.401	904.1	908.57	912.65	916.71	920.64	924.47	928.04	931.51	934.85
303.15 K, x1 = 0.4509	917.2	921.72	925.81	929.92	933.91	937.75	941.37	944.84	948.26
303.15 K, x1 = 0.5002	930.06	934.59	938.74	942.9	946.9	950.79	954.47	958	961.43
303.15 K, x1 = 0.5498	942.89	947.47	951.68	955.89	959.95	963.85	967.53	971.12	974.61
303.15 K, x1 = 0.5996	955.69	960.32	964.59	968.8	972.92	976.87	980.61	984.2	987.76
303.15 K, x1 = 0.6499	968.54	973.22	977.56	981.82	985.95	989.96	993.75	997.34	1000.93
303.15 K, x1 = 0.7006	981.46	986.15	990.49	994.8	998.94	1003.01	1006.8	1010.45	1014.1
303.15 K, x1 = 0.7471	993.16	997.9	1002.3	1006.66	1010.86	1014.93	1018.72	1022.39	1026.05
303.15 K, x1 = 0.7989	1006.2	1010.99	1015.45	1019.82	1024.03	1028.15	1032	1035.67	1039.35
303.15 K, x1 = 0.8491	1018.81	1023.65	1028.12	1032.54	1036.81	1040.99	1044.84	1048.52	1052.22
303.15 K, x1 = 0.8993	1031.43	1036.28	1040.81	1045.23	1049.51	1053.69	1057.6	1061.28	1065.05
303.15 K, x1 = 0.9249	1037.82	1042.67	1047.21	1051.62	1055.91	1060.1	1064.01	1067.75	1071.52
303.15 K, x1 = 0.9489	1043.76	1048.62	1053.16	1057.63	1061.92	1066.11	1070.02	1073.76	1077.54
303.15 K, x1 = 0.9743	1050.11	1054.97	1059.51	1063.98	1068.28	1072.47	1076.38	1080.13	1083.97
303.15 K, x1 = 1	1056.61	1061.47	1066.02	1070.49	1074.79	1078.99	1082.9	1086.6	1090.4
308.15 K, x1 = 0.0273	798.56	802.69	806.56	810.18	813.81	817.21	820.58	823.72	826.71
308.15 K, x1 = 0.0506	804.88	809.05	812.98	816.65	820.28	823.74	827.15	830.34	833.34
308.15 K, x1 = 0.0755	811.69	815.86	819.84	823.57	827.25	830.71	834.12	837.36	840.41
308.15 K, x1 = 0.1007	818.55	822.77	826.76	830.48	834.21	837.72	841.19	844.43	847.53
308.15 K, x1 = 0.1495	831.9	836.17	840.21	844.04	847.82	851.38	854.86	858.14	861.25
308.15 K, x1 = 0.2003	845.6	849.97	854.07	857.95	861.78	865.4	868.98	872.31	875.47
308.15 K, x1 = 0.2529	859.71	864.12	868.28	872.21	876.1	879.78	883.42	886.79	890
308.15 K, x1 = 0.2993	872.12	876.53	880.75	884.73	888.67	892.4	896.05	899.42	902.69
308.15 K, x1 = 0.3497	885.38	889.84	894.11	898.2	902.19	905.97	909.68	913.1	916.37
308.15 K, x1 = 0.401	898.75	903.3	907.64	911.77	915.81	919.66	923.42	926.84	930.17
308.15 K, x1 = 0.4509	911.74	916.34	920.73	924.87	928.97	932.87	936.64	940.1	943.48
308.15 K, x1 = 0.5002	924.45	929.1	933.55	937.74	941.84	945.79	949.62	953.13	956.52
308.15 K, x1 = 0.5498	937.17	941.82	946.33	950.57	954.72	958.68	962.57	966.12	969.52
308.15 K, x1 = 0.5996	949.8	954.5	959.02	963.36	967.52	971.54	975.48	979.03	982.49
308.15 K, x1 = 0.6499	962.55	967.29	971.88	976.22	980.43	984.5	988.45	992.05	995.51
308.15 K, x1 = 0.7006	975.36	980.15	984.79	989.19	993.45	997.53	1001.49	1005.08	1008.6
308.15 K, x1 = 0.7471	986.95	991.79	996.49	1000.94	1005.2	1009.34	1013.35	1016.99	1020.52
308.15 K, x1 = 0.7989	999.88	1004.72	1009.48	1013.98	1018.3	1022.49	1026.51	1030.15	1033.73
308.15 K, x1 = 0.8491	1012.38	1017.27	1022.04	1026.54	1030.91	1035.16	1039.19	1042.88	1046.46
308.15 K, x1 = 0.8993	1024.9	1029.78	1034.61	1039.16	1043.54	1047.79	1051.88	1055.57	1059.15
308.15 K, x1 = 0.9249	1031.23	1036.11	1040.95	1045.55	1049.98	1054.24	1058.33	1062.01	1065.61
308.15 K, x1 = 0.9489	1037.12	1042.05	1046.89	1051.5	1055.93	1060.19	1064.28	1068.02	1071.61
308.15 K, x1 = 0.9743	1043.46	1048.4	1053.24	1057.85	1062.28	1066.54	1070.69	1074.37	1078.02
308.15 K, x1 = 1	1049.91	1054.84	1059.69	1064.3	1068.73	1073	1077.1	1080.78	1084.38

From the NIST ThermoML archive (doi:10.1016/j.jct.2019.02.011)
